Target: T1, Recombinant human liver GK1 (GST-GK) (Homo sapiens, UniProt P35557)
T1 construct: made in house; host or cells: E. coli
T1 sequence (P35557 1-466 isoform P35557-2): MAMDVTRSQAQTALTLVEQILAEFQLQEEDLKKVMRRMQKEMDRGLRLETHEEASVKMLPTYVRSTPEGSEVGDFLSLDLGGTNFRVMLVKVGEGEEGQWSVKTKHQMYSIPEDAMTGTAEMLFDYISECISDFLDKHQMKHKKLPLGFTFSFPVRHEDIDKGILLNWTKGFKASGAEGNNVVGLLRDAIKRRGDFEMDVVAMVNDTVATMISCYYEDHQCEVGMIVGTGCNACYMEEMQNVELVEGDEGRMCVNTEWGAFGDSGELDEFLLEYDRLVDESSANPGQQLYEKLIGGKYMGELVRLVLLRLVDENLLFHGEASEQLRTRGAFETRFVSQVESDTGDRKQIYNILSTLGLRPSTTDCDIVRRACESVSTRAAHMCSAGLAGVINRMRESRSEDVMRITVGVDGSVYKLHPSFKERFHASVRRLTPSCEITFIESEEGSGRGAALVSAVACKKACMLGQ
Test: In vitro glucokinase activity (G6PDH-coupled NADH assay)
Type: biochemical
Settings: 30° C., 5 mM D-glucose, 10% DMSO
Summary of the method: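 Activation measured as the rate of OD340 rise from G6PDH-coupled NADH production, relative to 10% DMSO control, reported as SC1.5 (concentration for 50% activity increase). Conditions: 30° C, pH 7.1 Hepes, 5 mM glucose, 1 mM ATP, purified recombinant GST-human GK1, compound preincubated 10 min before enzyme addition.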

| SC1.5 (concentration of activator that produced a 50% increase in the activity of GK) | SMILES |
| --- | --- |
| 0.4 µM | CC(C)C[C@@H](C(=O)Nc1ccn(C)n1)N1CC(Oc2cccc(Cl)c2Cl)=CC1=O.Cl [Example 78, (S)-2-[4-(2,3-Dichloro-phenoxy)-2-oxo-2,5-dihydro-pyrrol-1-yl]-4-methyl-pentanoic acid (1-methyl-1H-pyrazol-3-yl)-amide Hydrochloride] |
| 0.771 µM | O=C(Nc1ccn(C[C@@H](O)CO)n1)[C@H](Cc1ccc(F)cc1)N1CC(Oc2ccccc2Cl)=CC1=O [Example 187, (S)-2-[4-(2-chloro-phenoxy)-2-oxo-2,5-dihydro-pyrrol-1-yl]-N-[1-((R)-2,3-dihydroxy-propyl)-1H-pyrazol-3-yl]-3-(4-fluorophenyl)-propionamide] |
| 0.05 µM | O=C(Nc1ccn(CCO)n1)[C@H](CC1CCCC1)N1CC(Oc2c(F)cccc2F)=CC1=O [Example 89, (S)-3-Cyclopentyl-2-[4-(2,6-difluoro-phenoxy)-2-oxo-2,5-dihydro-pyrrol-1-yl]-N-[1-(2-hydroxy-ethyl)-1H-pyrazol-3-yl]-propionamide] |
| 5.216 µM | CC(C)OC1=CC(=O)N([C@@H](CC2CCCC2)C(=O)Nc2cnccn2)C1 [Example 23, (S)-3-Cyclopentyl-N-(pyrazin-2-yl)-2-(4-isopropoxy-2-oxo-2,5-dihydro-pyrrol-1-yl)-propionamide] |
| 0.681 µM | CC(C)Oc1ccccc1OC1=CC(=O)N([C@@H](CC2CCCCC2)C(=O)Nc2ccn(CC(C)(C)O)n2)C1 [Example 195, (S)-3-cyclohexyl-N-[1-(2-hydroxy-2-methyl-propyl)-1H-pyrazol-3-yl]-2-[4-(2-isopropoxy-phenoxy)-2-oxo-2,5-dihydro-pyrrol-1yl]-propionamide] |
| 0.006 µM | CC(C)(O)Cn1ccc(NC(=O)[C@H](CC2CCCCC2)N2CC(Oc3ccccc3Cl)=CC2=O)n1 [Example 61, (S)-2-[4-(2-Chloro-phenoxy)-2-oxo-2,5-dihydro-pyrrol-1-yl]-3-cyclohexyl-N-[1-(2-hydroxy-2-methyl-propyl)-1-H-pyrazol-3-yl]-propionamide] |
| > 30 µM | COC1=CC(=O)N([C@@H](CC2CCCC2)C(=O)Nc2nc3ccccc3s2)C1 [Example 3, (S)-N-Benzothiazol-2-yl-3-cyclopentyl-2-(4-methoxy-2-oxo-2,5-dihydro-pyrrol-1-yl)-propionamide] |
| 0.05 µM | O=C(Nc1ccn(C[C@@H](O)CO)n1)[C@H](CC1CCC1)N1CC(Oc2ccccc2Cl)=CC1=O [Example 176, (S)-2-[4-(2-chloro-phenoxy)-2-oxo-2,5-dihydro-pyrrol-1-yl]-3-cyclobutyl-N-[1-((R)-2,3-dihydroxy-propyl)-1H-pyrazol-3-yl]-propionamide] |

Same assay, conditions: at 30 μM test compound

| fold act. @ 30 μM | SMILES |
| --- | --- |
| 1.3 fold | COC1=CC(=O)N([C@@H](CC2CCCC2)C(=O)Nc2nc3ccccc3s2)C1 [Example 3, (S)-N-Benzothiazol-2-yl-3-cyclopentyl-2-(4-methoxy-2-oxo-2,5-dihydro-pyrrol-1-yl)-propionamide] |
